Here are results for 13 compounds from PMC9841530 (Journal of Medicinal Chemistry, 2022).

In brackets after ≈: the same amount, converted by molar mass. Read-outs that look alike come from different tables or passages of the source. A value given as a limit tells only on which side of the number the result lay.

The Solubility is the dissolved amount per volume that the medium holds. A low value points to little dissolved substance. As a reminder, the solubility is how much of the substance goes into solution per volume. The low end stands for little dissolved substance, the high end for much dissolved substance.

One data set addresses human wild-type CFTR (Homo sapiens, UniProt P13569). Nature of the data set: YFP fluorescence quenching assay of CFTR channel activity. The data set is classed as cell-based. Particulars: for fold less potent than Cact-3: YFP EC50 vs Cact-3.
Data set [1] can be described thus: Thermodynamic solubility in PBS. It is filed as physicochemical. Particulars: for Solubility: PBS (pH 7.5), concentration after 90 min of vortexing, ND: not detected; for fold more soluble than Cact-3: PBS solubility vs Cact-3.
Data set [2] can be described thus: Maximum solubility for eye drop administration. It is filed as physicochemical.
Data set [3] concerns normal female C57BL/6J mice. Nature of the data set: Tear volume in normal mice. Particulars: for effect on tear volume: 16d up to 1 mM, Cact-3 up to 72 μM. It is filed as in vivo, mouse.
A further data set concerns the target T1, human ANO1 (Homo sapiens, UniProt Q5XXA6).
T1 sequence (Q5XXA6 1-986): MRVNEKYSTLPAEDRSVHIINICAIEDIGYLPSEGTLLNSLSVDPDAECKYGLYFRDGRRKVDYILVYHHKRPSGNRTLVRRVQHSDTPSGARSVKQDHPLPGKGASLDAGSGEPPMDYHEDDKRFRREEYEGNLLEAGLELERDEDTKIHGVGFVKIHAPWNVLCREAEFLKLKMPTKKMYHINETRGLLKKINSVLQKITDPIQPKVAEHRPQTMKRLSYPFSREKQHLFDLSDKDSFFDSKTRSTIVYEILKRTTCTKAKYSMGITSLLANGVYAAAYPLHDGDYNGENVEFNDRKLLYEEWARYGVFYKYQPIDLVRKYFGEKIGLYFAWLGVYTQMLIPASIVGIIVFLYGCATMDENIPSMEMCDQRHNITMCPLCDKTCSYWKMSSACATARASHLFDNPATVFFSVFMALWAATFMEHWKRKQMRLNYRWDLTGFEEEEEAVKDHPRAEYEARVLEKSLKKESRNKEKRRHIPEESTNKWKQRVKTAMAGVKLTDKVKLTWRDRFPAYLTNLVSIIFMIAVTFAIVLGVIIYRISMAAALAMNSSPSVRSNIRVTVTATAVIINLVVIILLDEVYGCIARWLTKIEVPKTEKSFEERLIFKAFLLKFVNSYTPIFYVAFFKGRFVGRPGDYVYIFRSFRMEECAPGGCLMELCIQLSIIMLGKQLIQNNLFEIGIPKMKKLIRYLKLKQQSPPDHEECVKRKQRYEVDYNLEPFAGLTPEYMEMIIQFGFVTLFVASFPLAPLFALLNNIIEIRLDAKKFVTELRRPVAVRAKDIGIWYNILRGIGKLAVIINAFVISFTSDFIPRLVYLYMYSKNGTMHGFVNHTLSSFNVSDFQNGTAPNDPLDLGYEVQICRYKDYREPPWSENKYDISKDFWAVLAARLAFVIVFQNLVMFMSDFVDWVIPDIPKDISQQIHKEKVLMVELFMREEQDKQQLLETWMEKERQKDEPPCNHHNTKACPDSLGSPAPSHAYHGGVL
The experiment in a line: ANO1 apical membrane current in FRT cells expressing human ANO1. The data set is classed as cell-based. Particulars: 16d 30 μM, Ani9 10 μM; ANO1 activated by 100 μM ATP.

For data set [4], the system named is volume-regulated anion channel (VRAC). The experiment in a line: VRAC activity by YFP fluorescence quenching assay. The data set is classed as cell-based. Particulars: 16d 30 μM, VI-116 10 μM; hypotonic solution 5 min.
For another data set, the system named is TNF-α mRNA. Particulars: mouse, in vivo.
Data set [5] relates to conjunctival epithelial (ConjE) cells. The experiment in a line: Conjunctival epithelial cytotoxicity test. It is filed as cell-based, human. Particulars: 30 μM, 48 h, MTS assay.
A further data set has as its system IL-1β mRNA. Particulars: mouse, in vivo.
The format of data set [6] is in vivo, New Zealand White Rabbit. Particulars: rabbit; for AUC0-24 / AUC0-inf / AUC0-last: 0.1 mg/eye.
A further data set concerns IL-17 mRNA. Particulars: mouse, in vivo.
The subject of another data set is MMP-2 mRNA. Particulars: mouse, in vivo.
Data set [7] relates to corneal epithelial (CorE) cells. Nature of the data set: Corneal epithelial cytotoxicity test. It is filed as cell-based, human. Particulars: 30 μM, 48 h, MTS assay. A general note: Tetrazolium dyes change colour on reduction, which living cells bring about.
The test system of data set [8] is scopolamine-induced dry eye mouse model. Nature of the data set: Tear volume in scopolamine-induced dry eye mouse model. Particulars: DED mice; 5 μL eye drops three times a day for 10 days; 16d 2060 μM, 0.3% diquafosol sodium. The data set is classed as in vivo.
For data set [9] the test system is unchanged. The experiment in a line: Corneal erosion grading in scopolamine-induced dry eye mouse model. Particulars: DED mice; 16d 2060 μM three times a day for 10 days; compared to control group. It is filed as in vivo.
The test system of the next data set is intracellular cAMP. Nature of the data set: Intracellular cAMP measurement in CHO-K1 cells. Particulars: 30 μM, 10 min, IBMX 100 μM, compared to the control. It is filed as cell-based.
Data set [10] concerns the target T2, human CFTR (Homo sapiens, UniProt P13569). Particulars: 20 μM CFTRinh-172; CHO-K1 cells expressing human CFTR.
The target of another data set is endogenous CFTR channels (Homo sapiens, UniProt P13569). Particulars: 10 μM CFTRinh-172; primary cultured human conjunctival epithelial cells.
Chain of endogenous CFTR channels (P13569 whole entry): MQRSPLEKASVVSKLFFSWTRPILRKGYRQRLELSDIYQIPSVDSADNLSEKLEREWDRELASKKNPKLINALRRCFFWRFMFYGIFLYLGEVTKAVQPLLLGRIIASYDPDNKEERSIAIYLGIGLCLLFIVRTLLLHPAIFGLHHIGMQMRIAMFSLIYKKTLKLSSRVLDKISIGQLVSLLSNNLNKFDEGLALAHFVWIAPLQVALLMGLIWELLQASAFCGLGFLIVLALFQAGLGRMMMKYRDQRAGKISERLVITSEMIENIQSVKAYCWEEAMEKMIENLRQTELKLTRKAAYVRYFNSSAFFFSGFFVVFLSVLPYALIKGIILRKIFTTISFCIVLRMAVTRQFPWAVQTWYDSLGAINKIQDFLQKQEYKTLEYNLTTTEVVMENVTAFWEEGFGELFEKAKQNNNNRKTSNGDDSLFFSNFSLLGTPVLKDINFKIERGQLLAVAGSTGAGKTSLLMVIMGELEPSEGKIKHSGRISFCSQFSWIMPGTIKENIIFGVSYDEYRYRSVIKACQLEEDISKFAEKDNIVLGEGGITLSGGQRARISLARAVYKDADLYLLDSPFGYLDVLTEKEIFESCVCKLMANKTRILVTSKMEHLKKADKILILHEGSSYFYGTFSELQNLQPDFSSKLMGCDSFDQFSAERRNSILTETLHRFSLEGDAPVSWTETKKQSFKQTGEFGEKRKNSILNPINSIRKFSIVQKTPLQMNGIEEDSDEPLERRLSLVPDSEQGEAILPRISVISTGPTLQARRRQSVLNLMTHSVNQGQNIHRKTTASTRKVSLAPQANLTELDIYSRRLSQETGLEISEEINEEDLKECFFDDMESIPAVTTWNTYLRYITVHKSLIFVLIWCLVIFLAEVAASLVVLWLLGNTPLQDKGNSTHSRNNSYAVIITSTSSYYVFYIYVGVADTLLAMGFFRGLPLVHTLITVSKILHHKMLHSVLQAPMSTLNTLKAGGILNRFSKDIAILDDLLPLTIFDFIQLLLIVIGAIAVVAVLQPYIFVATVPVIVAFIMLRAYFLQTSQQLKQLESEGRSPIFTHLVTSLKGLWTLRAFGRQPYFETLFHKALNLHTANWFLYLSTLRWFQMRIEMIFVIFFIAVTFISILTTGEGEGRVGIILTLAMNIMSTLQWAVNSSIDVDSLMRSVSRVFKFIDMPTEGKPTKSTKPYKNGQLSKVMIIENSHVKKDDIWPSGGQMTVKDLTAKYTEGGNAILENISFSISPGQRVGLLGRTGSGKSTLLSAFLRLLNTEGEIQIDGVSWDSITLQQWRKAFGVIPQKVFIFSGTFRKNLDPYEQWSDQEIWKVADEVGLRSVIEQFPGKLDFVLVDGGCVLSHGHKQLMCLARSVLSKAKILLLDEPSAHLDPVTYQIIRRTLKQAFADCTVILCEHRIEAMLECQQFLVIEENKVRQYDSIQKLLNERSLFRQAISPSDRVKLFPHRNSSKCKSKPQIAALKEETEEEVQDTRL
Data set [11] has as its target T2, human CFTR. Nature of the data set: Apical membrane current in FRT cells expressing human CFTR. The data set is classed as cell-based. Particulars: 10 μM CFTRinh-172.

Chain of human wild-type CFTR (P13569 whole entry): as above
T2 sequence (P13569 whole entry): as above

As for `COC(=O)c1ccc(CNC(=O)c2cc3nccc(-c4ccc(OC)c(OC)c4)n3n2)cc1` [5g, Methyl 4-((7-(3,4-dimethoxyphenyl)pyrazolo[1,5-a]pyrimidine-2-carboxamido)methyl)benzoate], the “fold less potent than 5d” value at human wild-type CFTR (YFP EC50 vs 5d) is reported as 34 fold.

For the compound `COc1ccc(-c2ccnc3cc(C(=O)Nc4ccc(OCCN5CCOCC5)cc4)nn23)cc1OC` [5e, 7-(3,4-Dimethoxyphenyl)-N-(4-(2-morpholinoethoxy)phenyl)pyrazolo[1,5-a]pyrimidine-2-carboxamide], in data set [1], the Solubility result was “completely insoluble”.

`CCOc1ccc(NC(=O)c2cc3nccc(-c4ccc(OC)c(OC)c4)n3n2)cc1` [compound 1, 7-(3,4-Dimethoxyphenyl)-N-(4-ethoxyphenyl)pyrazolo[1,5-a]pyrimidine-2-carboxamide]: the concentration in solution in data set [1] (PBS, pH 7.5) (solubility at 90 min) came to 0.059 µM (≈ 0.0247 µg/mL). In data set [2], the Solubility was 72 µM (≈ 30.1 µg/mL). The “time of maximal tear volume after administration” value in data set [3] (2.5 μL eye drops, once) turned out to be 3 h. Moreover, the “effect on tear volume” value in data set [3] is given as “dose-dependent increase”.

On to `COc1ccc(-c2ccnc3cc(C(=O)Nc4ccc(C(=O)N5CCOCC5)cc4)nn23)cc1OC` [10a, 7-(3,4-Dimethoxyphenyl)-N-(4-(morpholine-4-carbonyl)phenyl)pyrazolo[1,5-a]pyrimidine-2-carboxamide], for which the Solubility result in [1] is “completely insoluble”.

Consider `COc1ccc(-c2ccnc3cc(C(=O)NCc4ccc(N5CCOCC5)cc4)nn23)cc1OC` [5h, 7-(3,4-Dimethoxyphenyl)-N-(4-morpholinobenzyl)pyrazolo[1,5-a]pyrimidine-2-carboxamide], for which, on human wild-type CFTR (YFP EC50 vs 5f), the “fold less potent than 5f” value stood at 101 fold.

Consider `COc1ccc(-c2ccnc3cc(C(=O)N4CCN(C(=O)c5ccccc5)[C@@H](C)C4)nn23)cc1OC` [16d, (S)-(4-Benzoyl-3-methylpiperazin-1-yl)(7-(3,4-dimethoxyphenyl)pyrazolo[1,5-a]pyrimidin-2-yl)methanone], for which the “effect on ANO1 channel activity” value at human ANO1 was “did not affect”. In addition, in data set [4], the “effect on VRAC channel activity” value was “did not affect”. Moreover, the “mRNA expression level of TNF-α” value in the data set with TNF-α mRNA was “significantly decreased”. In addition, in data set [5], the “effect on cell viability of ConjE” value is given as “did not affect”. Further, the “mRNA expression level of IL-1β” value in the data set on IL-1β mRNA is listed as “significantly decreased”. For the same compound, in data set [6] (mean conjunctiva), the AUC0-24 is 4734.0 ng·h/mL or ng·h/g, the AUC0-inf is 13741.0 ng·h/mL or ng·h/g and the AUC0-last was 9819.0 ng·h/mL or ng·h/g. Moreover, in [6] (mean cornea), the AUC0-24 is reported as 19409.0 ng·h/mL or ng·h/g, the AUC0-inf is listed as 35802.0 ng·h/mL or ng·h/g and the AUC0-last is 28349.0 ng·h/mL or ng·h/g. Moreover, the “adverse effects during the PK study” value in [6] (topical ocular administration 0.1 mg/eye) was “No adverse effects”. Further, in [6] (cornea and conjunctiva), the “period maintained in cornea and conjunctiva” value was > 8 h. For the same compound, in data set [2], the Solubility was > 2000 µM. In addition, in the data set on IL-17 mRNA, the “mRNA expression level of IL-17” value is given as “significantly decreased”. The “mRNA expression level of MMP-2” value with MMP-2 mRNA is on record as “significantly decreased”. Moreover, in data set [3], the “Emax (tear volume)” value is recorded as “higher than Cact-3” and the “effect on tear volume” value was “dose-dependent increase”. The “effect on cell viability of CorE” value in data set [7] is given as “did not affect”. Further, the “effect on scopolamine-induced tear volume decrease” value in data set [8] is “significantly and almost completely restored”. In data set [9], the “effect on corneal erosion” value is “significantly reduced”. For the same compound, in the data set on intracellular cAMP, the “effect on intracellular cAMP level” value is recorded as “slightly increased”.

Consider `O=C(O)c1ccc(/C=C2\SC(=S)N(c3cccc(C(F)(F)F)c3)C2=O)cc1` [CFTRinh-172], for which, at human CFTR [10], the “inhibition of 16d-induced CFTR whole-cell currents” value is given as “completely inhibited”. For the same compound, on endogenous CFTR channels, the “inhibition of 16d-induced CFTR current (short-circuit current)” value is given as “fully inhibited”. For the same compound, the “block of 16d-induced CFTR chloride current” value on human CFTR [11] is “completely blocked”.

In the case of `COc1ccc(-c2ccnc3cc(C(=O)Nc4ccc(C(=O)O)cc4F)nn23)cc1OC` [9b, 4-(7-(3,4-Dimethoxyphenyl)pyrazolo[1,5-a]pyrimidine-2-carboxamido)-3-fluorobenzoic Acid], in [1] (vs 9a), the “solubility/YFP ratio, fold less than 9a” value is recorded as 2 fold. Further, the “times more potent than 9a” value on human wild-type CFTR (YFP EC50 vs 9a) is recorded as 7 times.

As to `COc1ccc(-c2ccnc3cc(C(=O)Nc4ccc(C(=O)O)cc4)nn23)cc1OC` [9a, 4-(7-(3,4-Dimethoxyphenyl)pyrazolo[1,5-a]pyrimidine-2-carboxamido)benzoic Acid], in data set [1], the “fold more soluble than Cact-3” value was 88 fold. The “fold less potent than Cact-3” value on human wild-type CFTR was 17 fold.

Turning to `O=c1ccn([C@@H]2O[C@H](COP(=O)(O)OP(=O)(O)OP(=O)(O)OP(=O)(O)OC[C@H]3O[C@@H](n4ccc(=O)[nH]c4=O)[C@H](O)[C@@H]3O)[C@@H](O)[C@H]2O)c(=O)[nH]1` [diquafosol, reference compound], in the data set on TNF-α mRNA, the “mRNA expression level of TNF-α” value is given as “significantly reduced”. Further, in the data set with IL-17 mRNA, the “mRNA expression level of IL-17” value is recorded as “significantly reduced”. The “mRNA expression level of MMP-2” value in the data set with MMP-2 mRNA is reported as “significantly reduced”. Besides, in data set [8], the “effect on scopolamine-induced tear volume decrease” value is given as “significant recovery”.

For the compound `COc1ccc(-c2ccnc3cc(C(=O)Nc4ccc(C(=O)N5CCN(C)CC5)cc4)nn23)cc1OC.Cl` [11c, 7-(3,4-Dimethoxyphenyl)-N-(4-(4-methylpiperazine-1-carbonyl)phenyl)pyrazolo[1,5-a]pyrimidine-2-carboxamide Hydrochloride], the “fold more soluble than Cact-3” value in data set [1] was determined as 4017 fold. For the same compound, the “fold more potent than 11a” value on human wild-type CFTR (YFP EC50 vs 11a) was found to be 13 fold. Moreover, the “fold less potent than Cact-3” value at human wild-type CFTR amounted to 16 fold.

Take `COc1ccc(-c2ccnc3cc(C(=O)N4CCN(C(=O)c5ccccc5)CC4)nn23)cc1OC` [16b, (4-Benzoylpiperazin-1-yl)(7-(3,4-dimethoxyphenyl)pyrazolo[1,5-a]pyrimidin-2-yl)methanone]: on human wild-type CFTR (YFP EC50 vs 16a), the “fold more potent than 16a” value is given as 7 fold.

In the case of `COc1ccc(-c2ccnc3cc(C(=O)Nc4ccc(N5CCOCC5)cc4)nn23)cc1OC` [5f, 7-(3,4-Dimethoxyphenyl)-N-(4-morpholinophenyl)pyrazolo[1,5-a]pyrimidine-2-carboxamide], the Solubility entry in data set [1] is reported as “completely insoluble”.
